In patent publication US20260055108A1, “TRIAZINE COMPOUNDS AND USES THEREOF” (HUTCHMED LIMITED, priority 2022, published 2026):
Where two headings read alike, the source gives them in different places.

Columns and labels:
[1] = molecular target: Recombinant human Menin protein (2-610) / MLL polypeptide binding (Homo sapiens (Human), UniProt O00255); experiment: Menin and MLL protein binding at a molecular level (fluorescence polarization method); details: inhibition of Menin / MLL polypeptide binding
How it was run: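 Binding of recombinant human Menin (2-610) to 6-FAM-labelled MLL peptide measured by fluorescence polarization (ex 480/em 535 nm) in Tris/NaCl/TCEP buffer, pH 7.5, 2% DMSO. Compound preincubated with Menin 30 min at room temperature, then peptide added for 30 min in the dark. Tested at 1.000 down to 0.0005 μM final.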

[2] = system: MV-4-11 cells (human acute myelogenous leukemia cell line carrying MLL-AF4 mutation); experiment: Cell proliferation assay, MV-4-11 (CellTiter-Glo); format: cell-based; details: Homo sapiens, MV4-11, 72 h
How it was run: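 MV-4-11 cells (3000/well, IMDM with 10% HIFBS and 50 μM β-mercaptoethanol) exposed to compound at 1.100–0.001 μM final, 0.1% DMSO, for 3 days at 37°C. Viability read by CellTiter-Glo luminescence on day 0 and day 3, normalised to day-0 and untreated wells.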

[3] = MV-4-11 cells, 3 days treatment, CellTiter-Glo, read-out: GI50

Chain of Recombinant human Menin protein (2-610) / MLL polypeptide binding (O00255 2-610): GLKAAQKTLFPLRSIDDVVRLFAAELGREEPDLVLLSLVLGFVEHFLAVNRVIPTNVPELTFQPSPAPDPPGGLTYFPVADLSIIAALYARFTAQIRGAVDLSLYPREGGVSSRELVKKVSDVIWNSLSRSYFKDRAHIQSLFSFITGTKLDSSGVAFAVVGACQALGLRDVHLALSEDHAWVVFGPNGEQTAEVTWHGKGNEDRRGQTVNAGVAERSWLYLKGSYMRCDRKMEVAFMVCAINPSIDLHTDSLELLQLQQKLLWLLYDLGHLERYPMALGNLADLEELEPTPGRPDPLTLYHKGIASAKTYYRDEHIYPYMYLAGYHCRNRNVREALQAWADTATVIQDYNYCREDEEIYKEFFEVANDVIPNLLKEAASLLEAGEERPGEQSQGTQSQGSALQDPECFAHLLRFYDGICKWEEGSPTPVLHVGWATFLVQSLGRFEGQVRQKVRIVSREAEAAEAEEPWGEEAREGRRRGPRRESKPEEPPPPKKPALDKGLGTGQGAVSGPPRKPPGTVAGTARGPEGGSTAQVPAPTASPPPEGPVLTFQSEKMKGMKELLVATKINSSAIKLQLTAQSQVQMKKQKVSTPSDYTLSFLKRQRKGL

Row | Compound | IC50 [1] | GI50 [2, 3] | GI50 [2]
1 | CCN(C(=O)c1cc(F)ccc1Oc1nnc(NC)nc1N1CC2(CCN(Cc3ccc4c(cc(C#N)n4CCO)c3C)CC2)C1)C(C)C [Compound 156] | 43.7 nM | 48 nM | 
2 | CCN(C(=O)c1cc(F)ccc1Oc1nncnc1N1CC2(CCN(Cc3ccc4c(cc(C#N)n4CC(O)C(N)=O)c3C)CC2)C1)C(C)C (stereo not drawn) [Compound 148] | 5.3 nM | 221 nM | 
3 | CCN(C(=O)c1cc(F)ccc1Oc1nncnc1N1CC2(CCN(CC3CCN(c4cccc(C(N)=O)n4)CC3)CC2)C1)C(C)C [Compound 119] | 2.3 nM | 3 nM | 
4 | CCN(C(=O)c1cc(F)ccc1Oc1nncnc1N1CC2(CCN(CC3CCN(C(=O)OC)CC3)CC2)C1)C(C)C [Compound 170, methyl 4-((2-(6-(2-(ethyl(isopropyl)carbamoyl)-4-fluorophenoxy)-1,2,4-triazin-5-yl)-2,7-diazaspiro[3.5]nonan-7-yl)methyl)piperidine-1-carboxylate] | 34.4 nM |  | 49 nM
5 | CCN(C(=O)c1cc(F)ccc1Oc1nncnc1N1CC2(CCN(CC3(N(C)C(=O)COC)CC3)CC2)C1)C(C)C [Compound 144, N-ethyl-5-fluoro-N-isopropyl-2-((5-(7-((1-(2-methoxy-N-methylacetamido)cyclopropyl)methyl)-2,7-diazaspiro[3.5]nonan-2-yl)-1,2,4-triazin-6-yl)oxy)benzamide] | 616 nM | 644 nM | 
6 | CCN(C(=O)c1cc(F)ccc1Oc1nncnc1N1CC2(CCN(CC3CCN(c4ccc(Br)c(=O)n4C)CC3)CC2)C1)C(C)C [Compound 42] | 89.9 nM | 37 nM | 
7 | CCN(C(=O)c1cc(F)ccc1Oc1nncnc1N1CC2(CCN(CC3CCN(c4cc(OC)ccn4)CC3)CC2)C1)C(C)C [Compound 113] | 1.9 nM | 4 nM | 
8 | CCN(C(=O)c1cc(F)ccc1Oc1nncnc1N1CC2(CCN(CC3CCN(c4ccncn4)CC3)CC2)C1)C(C)C [Compound 165, N-ethyl-5-fluoro-N-isopropyl-2-((5-(7-((1-(pyrimidin-4-yl)piperidin-4-yl)methyl)-2,7-diazaspiro[3.5]nonan-2-yl)-1,2,4-triazin-6-yl)oxy)benzamide] | 5.3 nM | 13 nM | 
9 | CCN(C(=O)c1cc(F)ccc1Oc1nncnc1N1CC2(CCN(Cc3ccc4c(c3)cc(C#N)n4CCO)CC2)C1)C(C)C [Compound 162] | 13.9 nM | 30 nM | 
10 | CCN(C(=O)c1cc(F)ccc1Oc1nncnc1N1CC(C2(N(CCO)Cc3ccc4[nH]c(C#N)cc4c3C)CC2)C1)C(C)C [Compound 163] | 4.9 nM | 49 nM | 
11 | CCN(C(=O)c1cc(F)ccc1Oc1nncnc1N1CC2(CCN(CC3CCN(C(=O)c4cnn5cccnc45)CC3)CC2)C1)C(C)C [Compound 169, N-ethyl-5-fluoro-N-isopropyl-2-((5-(7-((1-(pyrazolo[1,5-a]pyrimidine-3-carbonyl)piperidin-4-yl)methy)-2,7-diazaspiro[3.5]nonan-2-yl)-1,2,4-triazin-6-yl)oxy)benzamide] | 166 nM | 108 nM | 
12 | CCN(C(=O)c1cc(F)ccc1Oc1nncnc1N1CC2(CCN(CC3CCN(c4ccc(=O)n(C)n4)CC3)CC2)C1)C(C)C [Compound 81] | 54.9 nM | 117 nM | 
13 | CCN(C(=O)c1cc(F)ccc1Oc1nncnc1N1CC2(CCN(CC3CCN(C(=O)NC)CC3)CC2)C1)C(C)C [Compound 27] | 5.3 nM | 13 nM | 
14 | CCN(C(=O)c1cc(F)ccc1Oc1nncnc1N1CC2(CCN(CC3CCN(C(=O)CC#N)CC3)CC2)C1)C(C)C [Compound 13] | 14.5 nM | 20 nM | 
15 | CCN(C(=O)c1cc(F)ccc1Oc1nncnc1N1CC2(CCN(CC3CCN(c4cc(OC)c(OC)nn4)CC3)CC2)C1)C(C)C [Compound 90] | 2.1 nM | 2 nM | 
16 | CCN(C(=O)c1cc(F)ccc1Oc1nncnc1N1CC2(CCN(CC3CCN(C(=O)C4(C(F)(F)F)CC4)CC3)CC2)C1)C(C)C [Compound 2] | 30 nM | 39 nM | 
17 | C=Cc1ccc(N2CCC(CN3CCC4(CC3)CN(c3ncnnc3Oc3ccc(F)cc3C(=O)N(CC)C(C)C)C4)CC2)nn1 [Compound 133, N-ethyl-5-fluoro-N-isopropyl-2-((5-(7-((1-(6-vinylpyridazin-3-yl)piperidin-4-yl)methyl)-2,7-diazaspiro[3.5]nonan-2-yl)-1,2,4-triazin-6-yl)oxy)benzamide] | 2 nM | 4 nM | 
18 | [2H]C(c1ccc2oc(C#N)cc2c1)N1CCC2(CC1)CN(c1ncnnc1Oc1ccc(F)cc1C(=O)N(CC)C(C)C)C2 (stereo not drawn) [Compound 176] | 6.1 nM | 26 nM | 
19 | CCN(C(=O)c1cc(F)ccc1Oc1nncnc1N1CC2(CCN(CC3CCN(c4cnc(OC)c(OC)c4)CC3)CC2)C1)C(C)C [Compound 111] | 5.2 nM | 8 nM | 
20 | CCN(C(=O)c1cc(F)ccc1Oc1nncnc1N1CC2(CCN(CC3CCN(c4cc(C(N)=O)ccn4)CC3)CC2)C1)C(C)C [Compound 52] | 0.9 nM | 3 nM | 
21 | CCN(C(=O)c1cc(F)ccc1Oc1nncnc1N1CC2(CCN(CC3CCN(C(=O)c4cnn(C)c4)CC3)CC2)C1)C(C)C [Compound 16] | 75 nM | 113 nM | 

Row | Compound | IC50 [1] | GI50 [2, 3] | GI50 [2]
22 | C=CC(=O)Nc1ccc(N2CC3(CCC(CN4CCC5(CC4)CN(c4ncnnc4Oc4ccc(F)cc4C(=O)N(CC)C(C)C)C5)CC3)C2)cc1 [Compound 180] | 3.9 nM | 10 nM | 
23 | C=CC(=O)Nc1cccc(N2CCC(CN3CCC4(CC3)CN(c3ncnnc3Oc3ccc(F)cc3C(=O)N(CC)C(C)C)C4)CC2)c1 [Compound 183] | 4 nM | 2 nM | 
24 | CCN(C(=O)c1cc(F)ccc1Oc1nncnc1N1CC2(CCN(CC3CCN(c4ccc(C#N)cn4)CC3)CC2)C1)C(C)C [Compound 50] | 5.4 nM | 7 nM | 
25 | CCN(C(=O)c1cc(F)ccc1Oc1nncnc1N1CC2(CCN(CC3CCN(c4nc(C#N)co4)CC3)CC2)C1)C(C)C [Compound 80] | 6.6 nM | 16 nM | 
26 | CCN(C(=O)c1cc(F)ccc1Oc1nncnc1N1CC2(CCN(CC3CCN(c4cnccn4)CC3)CC2)C1)C(C)C [Compound 40] | 11.4 nM | 23 nM | 
27 | CCN(C(=O)c1cc(F)ccc1Oc1nncnc1N1CC2(CCN(CC3CCN(c4ccc(C#N)cc4)CC3)CC2)C1)C(C)C [Compound 51] | 6.5 nM | 9 nM | 
28 | CCN(C(=O)c1cc(F)ccc1Oc1nncnc1N1CC2(CCN(CC3CCN(c4cccc(N)n4)CC3)CC2)C1)C(C)C [Compound 164, 2-((5-(7-((1-(6-aminopyridin-2-yl)piperidin-4-yl)methyl)-2,7-diazaspiro[3.5]nonan-2-yl)-1,2,4-triazin-6-yl)oxy)-N-ethyl-5-fluoro-N-isopropylbenzamide] | 4.6 nM | 27 nM | 
29 | CCN(C(=O)c1cc(F)ccc1Oc1nncnc1N1CC2(CCN(Cc3c(C)cc(C)[nH]c3=O)CC2)C1)C(C)C [Compound 58] | 114 nM | 230 nM | 
30 | CCN(C(=O)c1cc(F)ccc1Oc1nncnc1N1CC2(CCN(CC3CCN(c4cc5c(nn4)OCCO5)CC3)CC2)C1)C(C)C [Compound 108] | 21.6 nM | 60 nM | 
31 | CCN(C(=O)c1cc(F)ccc1Oc1nncnc1N1CC2(CCN(CC3CCN(C(=O)C4(C#N)CC4)CC3)CC2)C1)C(C)C [Compound 12] | 19.8 nM | 36 nM | 
32 | CCN(C(=O)c1cc(F)ccc1Oc1nncnc1N1CC2(CCN(CC3CCN(Cc4c(C)cc(C)[nH]c4=O)CC3)CC2)C1)C(C)C [Compound 138] | 102 nM | 409 nM | 
33 | Cc1c(CN2CCC3(CC2)CN(c2ncnnc2Oc2ccc(F)cc2)C3)ccc2c1cc(C#N)n2CCO [Compound 155] | 292 nM | 276 nM | 
34 | CCN(C(=O)c1cc(F)ccc1Oc1nncnc1N1CC2(CCN(CC3CC=C(c4ccccn4)CC3)CC2)C1)C(C)C (stereo not drawn) [Compound 123] | 133 nM | 39 nM | 
35 | CCN(C(=O)c1cc(F)ccc1Oc1nncnc1N1CC2(CCN(Cc3ccc(NC(=O)CC#N)cc3C)CC2)C1)C(C)C [Compound 17] | 48.7 nM | 50 nM | 
36 | N#Cc1ccc(N2CCC(CN3CCC4(CC3)CN(c3ncnnc3Oc3ccc(F)cc3C3=C(F)C(O)CCC3)C4)CC2)nc1 (stereo not drawn) [Compound 136, 6-(4-((2-(6-((5,6′-difluoro-5′-hydroxy-2′,3′,4′,5′-tetrahydro-[1,1′-biphenyl]-2-yl)oxy)-1,2,4-triazin-5-yl)-2,7-diazaspiro[3.5]nonan-7-yl)methyl)piperidin-1-yl)nicotinonitrile] | 184 nM | 170 nM | 
37 | CCN(C(=O)c1cc(F)ccc1Oc1nncnc1N1CC2(CCN(CC3CCN(c4ccc(C#N)cn4)CC3(C)C)CC2)C1)C(C)C (stereo not drawn) [Compound 126] | 14.6 nM | 27 nM | 
38 | CCN(C(=O)c1cc(F)ccc1Oc1nncnc1N1CC2(CCN(CC3CCN(S(C)(=O)=O)CC3)CC2)C1)C(C)C [Compound 22] | 112 nM | 87 nM | 
39 | CCN(C(=O)c1cc(F)ccc1Oc1nncnc1N1CC2(CCN(Cc3ccc4oc(C)nc4c3)CC2)C1)C(C)C [Compound 67] | 512 nM | 309 nM | 
40 | CCN(C(=O)c1cc(F)ccc1Oc1nncnc1N1CC2(CCN(CC3CCN(c4ccnnc4)CC3)CC2)C1)C(C)C [Compound 167] | 14.9 nM | 18 nM | 
41 | CCN(C(=O)c1cc(F)ccc1Oc1nncnc1N1CC2(CCN(CC3CCN(c4cc(C(F)(F)F)cnn4)CC3)CC2)C1)C(C)C [Compound 45] | 3.9 nM | 7 nM | 
42 | CCN(C(=O)c1cc(F)ccc1Oc1nncnc1N1CC2(CCN(Cc3ccc4oc(C(=O)NC)c(C)c4c3)CC2)C1)C(C)C [Compound 75] | 955 nM | 883 nM | 
